Assays:
[1] = target: T1, PML Protein PML (Homo sapiens, UniProt P29590); test: Cysteine liganding, probe competition; assay type: binding
T1 construct: Cells were resuspended in cold PBS on ice and sonicated with a probe sonicator to achieve lysis; endogenous in cells
T1 sequence (P29590 1-882): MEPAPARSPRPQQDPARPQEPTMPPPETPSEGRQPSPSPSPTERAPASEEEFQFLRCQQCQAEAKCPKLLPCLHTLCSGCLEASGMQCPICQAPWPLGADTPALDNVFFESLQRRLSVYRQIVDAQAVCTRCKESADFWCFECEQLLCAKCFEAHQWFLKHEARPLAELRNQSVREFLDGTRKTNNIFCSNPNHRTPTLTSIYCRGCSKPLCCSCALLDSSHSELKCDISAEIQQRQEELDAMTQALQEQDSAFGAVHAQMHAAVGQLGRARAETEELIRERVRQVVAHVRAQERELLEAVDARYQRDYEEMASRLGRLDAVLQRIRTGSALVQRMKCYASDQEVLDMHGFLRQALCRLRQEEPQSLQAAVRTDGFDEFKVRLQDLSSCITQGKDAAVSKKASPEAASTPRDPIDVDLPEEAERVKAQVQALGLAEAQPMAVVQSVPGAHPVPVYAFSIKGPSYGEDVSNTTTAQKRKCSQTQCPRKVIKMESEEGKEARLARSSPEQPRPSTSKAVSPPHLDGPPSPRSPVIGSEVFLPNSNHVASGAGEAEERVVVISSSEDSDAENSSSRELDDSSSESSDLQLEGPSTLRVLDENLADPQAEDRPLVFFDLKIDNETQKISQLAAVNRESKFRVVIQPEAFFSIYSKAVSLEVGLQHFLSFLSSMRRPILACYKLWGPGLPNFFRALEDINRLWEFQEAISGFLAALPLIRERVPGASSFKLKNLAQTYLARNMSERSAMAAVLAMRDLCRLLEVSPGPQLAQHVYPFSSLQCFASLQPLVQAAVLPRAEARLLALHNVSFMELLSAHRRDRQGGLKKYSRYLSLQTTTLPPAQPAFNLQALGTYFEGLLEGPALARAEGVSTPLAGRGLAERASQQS
Method in brief: (§1)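 Read-out is loss of desthiobiotin iodoacetamide labelling at cysteines, measured on streptavidin-enriched tryptic peptides. Compound preincubation ran 1 hr at 25° C in PBS lysate holding 5 mg/ml proteome before the probe was added.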

[2] = target: T2, KBTBD8 Kelch repeat and BTB domain-containing protein 8 (Homo sapiens, UniProt Q8NFY9); test: Cysteine liganding, probe competition; assay type: binding; details: for 100 Max / 100 ave / 500 Max / 500 ave: uniprot Q8NFY9
T2 construct: Cells were resuspended in cold PBS on ice and sonicated with a probe sonicator to achieve lysis; endogenous in cells
T2 sequence (Q8NFY9 1-601): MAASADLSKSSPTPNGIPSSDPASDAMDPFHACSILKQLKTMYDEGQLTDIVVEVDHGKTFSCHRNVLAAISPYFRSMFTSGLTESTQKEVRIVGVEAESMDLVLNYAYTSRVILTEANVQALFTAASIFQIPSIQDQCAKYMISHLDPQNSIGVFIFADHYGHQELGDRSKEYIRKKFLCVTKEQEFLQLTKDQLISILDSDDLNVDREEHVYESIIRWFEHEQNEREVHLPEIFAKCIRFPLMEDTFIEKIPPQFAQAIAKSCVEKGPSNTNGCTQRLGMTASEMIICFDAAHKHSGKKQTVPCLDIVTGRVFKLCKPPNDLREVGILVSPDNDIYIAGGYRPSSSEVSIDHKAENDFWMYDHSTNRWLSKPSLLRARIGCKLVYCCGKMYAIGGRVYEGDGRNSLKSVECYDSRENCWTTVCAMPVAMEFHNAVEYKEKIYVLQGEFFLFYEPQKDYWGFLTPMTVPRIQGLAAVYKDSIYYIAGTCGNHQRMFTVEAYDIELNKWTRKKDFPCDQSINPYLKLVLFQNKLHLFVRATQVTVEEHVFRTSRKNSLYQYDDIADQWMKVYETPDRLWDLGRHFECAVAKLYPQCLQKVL
Method in brief: as §1

Row | SMILES | Liganded ([1]; PML Res# 479, uniprot P29590) | Liganded ([1]; PML Res# 484, uniprot P29590) | Liganded ([2]; KBTBD8 Res# 181, uniprot Q8NFY9) | 100 Max [2] | 100 ave [2] | 500 Max [2] | 500 ave [2] | KB03_500 uM_percent_inhibition ([1]; UniProt P29590, 500 uM) [%]
1 | COc1ccc2c(c1)CCCN2C(=O)CCl [KB02] | YES | YES | YES | 38.4 | 36.7 | 79.2 | 79.2 | 
2 | O=C(CCl)Nc1cc(C(F)(F)F)cc(C(F)(F)F)c1 [KBO3] |  |  |  | 5.3 | −7.4 | 21.5 | 21.5 | 69
